Test system: Anopheles stephensi
Experiment: Anopheles stephensi treated well plate contact test: knockdown and mortality
Type: in vivo
Settings: Anopheles stephensi; test compound 0.2 ppm, without TFNA-AM, after 24 hours; read-out: mortality % 24, without TFNA-AM
Summary of the method: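 Well surfaces coated with ethanol solution of compound at a defined concentration, alone or with 2 ppm TFNA-AM, then dried. Five non-blood-fed 2–5-day-old adult females per well, fed 10% sucrose; knockdown scored at 1 hour, mortality at 24 and 48 hours, replicate means reported.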

Compound | mortality at 0.2 ppm
Cc1cc(C(F)(C(F)(F)F)C(F)(F)F)ccc1NC(=O)c1cccc(I)c1C(=O)NC(C)(C)CS(C)(=O)=O [Flubendiamide] | 0%
O=[N+]([O-])NC1=NCCN1Cc1ccc(Cl)nc1 [Imidacloprid] | 0%

Same assay, conditions: Anopheles stephensi; test compound 0.2 ppm, without TFNA-AM, after 48 hours; read-out: mortality % 48, without TFNA-AM

Compound | mortality at 0.2 ppm
Cc1cc(C(F)(C(F)(F)F)C(F)(F)F)ccc1NC(=O)c1cccc(I)c1C(=O)NC(C)(C)CS(C)(=O)=O [Flubendiamide] | 0%
O=[N+]([O-])NC1=NCCN1Cc1ccc(Cl)nc1 [Imidacloprid] | 0%

Same assay, conditions: Anopheles stephensi; test compound 0.2 ppm, without TFNA-AM, knockdown after 1 hour; read-out: Knock Down, without TFNA-AM

Compound | pest or weed control at 0.2 ppm
Cc1cc(C(F)(C(F)(F)F)C(F)(F)F)ccc1NC(=O)c1cccc(I)c1C(=O)NC(C)(C)CS(C)(=O)=O [Flubendiamide] | 0%
O=[N+]([O-])NC1=NCCN1Cc1ccc(Cl)nc1 [Imidacloprid] | 0%

Same assay, conditions: Anopheles stephensi; test compound 2 ppm, without TFNA-AM, after 24 hours; read-out: mortality % 24, without TFNA-AM

Compound | mortality at 2 ppm
Cc1cc(C(F)(C(F)(F)F)C(F)(F)F)ccc1NC(=O)c1cccc(I)c1C(=O)NC(C)(C)CS(C)(=O)=O [Flubendiamide] | 0%
O=[N+]([O-])NC1=NCCN1Cc1ccc(Cl)nc1 [Imidacloprid] | 20%

Same assay, conditions: Anopheles stephensi; test compound 2 ppm, without TFNA-AM, after 48 hours; read-out: mortality % 48, without TFNA-AM

Compound | mortality at 2 ppm
Cc1cc(C(F)(C(F)(F)F)C(F)(F)F)ccc1NC(=O)c1cccc(I)c1C(=O)NC(C)(C)CS(C)(=O)=O [Flubendiamide] | 0%
O=[N+]([O-])NC1=NCCN1Cc1ccc(Cl)nc1 [Imidacloprid] | 20%

Same assay, conditions: Anopheles stephensi; test compound 2 ppm, without TFNA-AM, knockdown after 1 hour; read-out: Knock Down, without TFNA-AM

Compound | pest or weed control at 2 ppm
Cc1cc(C(F)(C(F)(F)F)C(F)(F)F)ccc1NC(=O)c1cccc(I)c1C(=O)NC(C)(C)CS(C)(=O)=O [Flubendiamide] | 0%
O=[N+]([O-])NC1=NCCN1Cc1ccc(Cl)nc1 [Imidacloprid] | 0%

Same assay, conditions: Anopheles stephensi; test compound 20 ppm, without TFNA-AM, after 24 hours; read-out: mortality % 24, without TFNA-AM

Compound | mortality at 20 ppm
Cc1cc(C(F)(C(F)(F)F)C(F)(F)F)ccc1NC(=O)c1cccc(I)c1C(=O)NC(C)(C)CS(C)(=O)=O [Flubendiamide] | 0%
O=[N+]([O-])NC1=NCCN1Cc1ccc(Cl)nc1 [Imidacloprid] | 20%

Same assay, conditions: Anopheles stephensi; test compound 20 ppm, without TFNA-AM, after 48 hours; read-out: mortality % 48, without TFNA-AM

Compound | mortality at 20 ppm
Cc1cc(C(F)(C(F)(F)F)C(F)(F)F)ccc1NC(=O)c1cccc(I)c1C(=O)NC(C)(C)CS(C)(=O)=O [Flubendiamide] | 0%
O=[N+]([O-])NC1=NCCN1Cc1ccc(Cl)nc1 [Imidacloprid] | 60%

Same assay, conditions: Anopheles stephensi; test compound 20 ppm, without TFNA-AM, knockdown after 1 hour; read-out: Knock Down, without TFNA-AM

Compound | pest or weed control at 20 ppm
Cc1cc(C(F)(C(F)(F)F)C(F)(F)F)ccc1NC(=O)c1cccc(I)c1C(=O)NC(C)(C)CS(C)(=O)=O [Flubendiamide] | 0%
O=[N+]([O-])NC1=NCCN1Cc1ccc(Cl)nc1 [Imidacloprid] | 0%

Same assay, conditions: Anopheles stephensi; test compound 200 ppm, without TFNA-AM, after 24 hours; read-out: mortality % 24, without TFNA-AM

Compound | mortality at 200 ppm
Cc1cc(C(F)(C(F)(F)F)C(F)(F)F)ccc1NC(=O)c1cccc(I)c1C(=O)NC(C)(C)CS(C)(=O)=O [Flubendiamide] | 0%
O=[N+]([O-])NC1=NCCN1Cc1ccc(Cl)nc1 [Imidacloprid] | 40%

Same assay, conditions: Anopheles stephensi; test compound 200 ppm, without TFNA-AM, after 48 hours; read-out: mortality % 48, without TFNA-AM

Compound | mortality at 200 ppm
Cc1cc(C(F)(C(F)(F)F)C(F)(F)F)ccc1NC(=O)c1cccc(I)c1C(=O)NC(C)(C)CS(C)(=O)=O [Flubendiamide] | 0%
O=[N+]([O-])NC1=NCCN1Cc1ccc(Cl)nc1 [Imidacloprid] | 60%

Same assay, conditions: Anopheles stephensi; test compound 200 ppm, without TFNA-AM, knockdown after 1 hour, adult females; read-out: Knock Down, without TFNA-AM

Compound | pest or weed control at 200 ppm
Cc1cc(C(F)(C(F)(F)F)C(F)(F)F)ccc1NC(=O)c1cccc(I)c1C(=O)NC(C)(C)CS(C)(=O)=O [Flubendiamide] | 0%
O=[N+]([O-])NC1=NCCN1Cc1ccc(Cl)nc1 [Imidacloprid] | 40%

Same assay, conditions: test compound 0.2 ppm plus 2 ppm TFNA-AM, after 24 hours

Compound | mortality % 24, with TFNA-AM
Cc1cc(C(F)(C(F)(F)F)C(F)(F)F)ccc1NC(=O)c1cccc(I)c1C(=O)NC(C)(C)CS(C)(=O)=O [Flubendiamide] | 80%

Same assay, conditions: test compound 0.2 ppm plus 2 ppm TFNA-AM, after 48 hours

Compound | mortality % 48, with TFNA-AM
Cc1cc(C(F)(C(F)(F)F)C(F)(F)F)ccc1NC(=O)c1cccc(I)c1C(=O)NC(C)(C)CS(C)(=O)=O [Flubendiamide] | 40%
O=[N+]([O-])NC1=NCCN1Cc1ccc(Cl)nc1 [Imidacloprid] | 0%

Same assay, conditions: test compound 0.2 ppm plus 2 ppm TFNA-AM, knockdown after 1 hour

Compound | Knock Down, with TFNA-AM
Cc1cc(C(F)(C(F)(F)F)C(F)(F)F)ccc1NC(=O)c1cccc(I)c1C(=O)NC(C)(C)CS(C)(=O)=O [Flubendiamide] | 100%
O=[N+]([O-])NC1=NCCN1Cc1ccc(Cl)nc1 [Imidacloprid] | 100%

Same assay, conditions: test compound 2 ppm plus 2 ppm TFNA-AM, after 24 hours

Compound | mortality % 24, with TFNA-AM
Cc1cc(C(F)(C(F)(F)F)C(F)(F)F)ccc1NC(=O)c1cccc(I)c1C(=O)NC(C)(C)CS(C)(=O)=O [Flubendiamide] | 80%
O=[N+]([O-])NC1=NCCN1Cc1ccc(Cl)nc1 [Imidacloprid] | 100%

Same assay, conditions: test compound 2 ppm plus 2 ppm TFNA-AM, after 48 hours

Compound | mortality % 48, with TFNA-AM
Cc1cc(C(F)(C(F)(F)F)C(F)(F)F)ccc1NC(=O)c1cccc(I)c1C(=O)NC(C)(C)CS(C)(=O)=O [Flubendiamide] | 40%
O=[N+]([O-])NC1=NCCN1Cc1ccc(Cl)nc1 [Imidacloprid] | 100%

Same assay, conditions: test compound 2 ppm plus 2 ppm TFNA-AM, knockdown after 1 hour

Compound | Knock Down, with TFNA-AM
Cc1cc(C(F)(C(F)(F)F)C(F)(F)F)ccc1NC(=O)c1cccc(I)c1C(=O)NC(C)(C)CS(C)(=O)=O [Flubendiamide] | 100%
O=[N+]([O-])NC1=NCCN1Cc1ccc(Cl)nc1 [Imidacloprid] | 100%

Same assay, conditions: test compound 20 ppm plus 2 ppm TFNA-AM, after 24 hours

Compound | mortality % 24, with TFNA-AM
Cc1cc(C(F)(C(F)(F)F)C(F)(F)F)ccc1NC(=O)c1cccc(I)c1C(=O)NC(C)(C)CS(C)(=O)=O [Flubendiamide] | 80%
O=[N+]([O-])NC1=NCCN1Cc1ccc(Cl)nc1 [Imidacloprid] | 100%

Same assay, conditions: test compound 20 ppm plus 2 ppm TFNA-AM, after 48 hours

Compound | mortality % 48, with TFNA-AM
Cc1cc(C(F)(C(F)(F)F)C(F)(F)F)ccc1NC(=O)c1cccc(I)c1C(=O)NC(C)(C)CS(C)(=O)=O [Flubendiamide] | 40%
O=[N+]([O-])NC1=NCCN1Cc1ccc(Cl)nc1 [Imidacloprid] | 100%

Same assay, conditions: test compound 20 ppm plus 2 ppm TFNA-AM, knockdown after 1 hour

Compound | Knock Down, with TFNA-AM
Cc1cc(C(F)(C(F)(F)F)C(F)(F)F)ccc1NC(=O)c1cccc(I)c1C(=O)NC(C)(C)CS(C)(=O)=O [Flubendiamide] | 100%
O=[N+]([O-])NC1=NCCN1Cc1ccc(Cl)nc1 [Imidacloprid] | 100%

Same assay, conditions: test compound 200 ppm plus 2 ppm TFNA-AM, after 24 hours

Compound | mortality % 24, with TFNA-AM
Cc1cc(C(F)(C(F)(F)F)C(F)(F)F)ccc1NC(=O)c1cccc(I)c1C(=O)NC(C)(C)CS(C)(=O)=O [Flubendiamide] | 60%
O=[N+]([O-])NC1=NCCN1Cc1ccc(Cl)nc1 [Imidacloprid] | 100%

Same assay, conditions: test compound 200 ppm plus 2 ppm TFNA-AM, after 48 hours

Compound | mortality % 48, with TFNA-AM
Cc1cc(C(F)(C(F)(F)F)C(F)(F)F)ccc1NC(=O)c1cccc(I)c1C(=O)NC(C)(C)CS(C)(=O)=O [Flubendiamide] | 40%
O=[N+]([O-])NC1=NCCN1Cc1ccc(Cl)nc1 [Imidacloprid] | 100%

Same assay, conditions: test compound 200 ppm plus 2 ppm TFNA-AM, knockdown after 1 hour

Compound | Knock Down, with TFNA-AM
Cc1cc(C(F)(C(F)(F)F)C(F)(F)F)ccc1NC(=O)c1cccc(I)c1C(=O)NC(C)(C)CS(C)(=O)=O [Flubendiamide] | 100%
O=[N+]([O-])NC1=NCCN1Cc1ccc(Cl)nc1 [Imidacloprid] | 100%

— patent US20260206755A1, “COMPOUNDS AND COMPOSITIONS HAVING KNOCK-DOWN OR BLOOD FEED INHIBITION ACTIVITY AGAINST INSECT PESTS” (priority 2017, published 2026)
